A short description of the first series: logP(acid) by reverse phase (C18) chromatography at pH 2.3. It counts as physicochemical. To be noted: reverse phase (C18) chromatography at pH 2.3.
In the case of `Cc1nc(Cn2nc(C(F)F)c(Cl)c2C(F)F)ccc1NC(=O)c1cccc(Cl)c1C(=O)NC(C)C[S+](C)[O-]` (mixture of isomers) [13-58], the “logP (acid)” value is 2.13.
As to `Cc1cc(Cn2nc(C(F)(F)F)cc2C(F)(F)F)ncc1NC(=O)c1cccc(I)c1C(=O)NC(C)C[S+](C)[O-]` (mixture of isomers) [13-182], the “logP (acid)” value is listed as “logP (acid) 2.3”.
With `Cc1nc(Cn2nc(C(F)(F)C(F)(F)F)cc2C(F)(F)F)ccc1NC(=O)c1cccc(Br)c1C(=O)NC(C)C[S+](C)[O-]` (mixture of isomers) [13-188], the “logP (acid)” value is recorded as “logP (acid) 2.81”.
Turning to `Cc1nc(Cn2nc(C(F)(F)C(F)(F)F)cc2C(F)(F)F)ccc1NC(=O)c1cccc(I)c1C(=O)NC(C)C[S+](C)[O-]` (mixture of isomers) [13-190], the “logP (acid)” value is “logP (acid) 2.76”.

Staying with this series, now noted: reverse phase (C18) chromatography at pH2.3, 0.1% phosphoric acid aqueous solution / acetonitrile, linear gradient 10-95%.
In the case of `CNC(=O)c1cc(Cl)cc(Cl)c1C(=O)Nc1cc(Cl)cc(Cn2nc(C(F)(F)F)nc2C(F)(F)F)c1` [4-1], the “logP (acid)” value is “logP (acid) 3.32”.
Consider `CSC[C@H](C)NC(=O)c1c(Cl)cccc1C(=O)Nc1cccc(Cn2cc(C(F)(F)C(F)(F)F)c(C(F)(F)C(F)(F)F)n2)c1C` [4-6], for which the “logP (acid)” value is “logP (acid) 4.52”.
Still for that read-out and setting: with `CSC[C@H](C)NC(=O)c1c(Cl)cccc1C(=O)Nc1cccc(Cn2nc(C(F)(F)C(F)(F)F)nc2-c2ccc(Cl)cc2)c1C` [4-9] the entry was “logP (acid) 4.32”; with `CSC[C@H](C)NC(=O)c1c(Cl)cccc1C(=O)Nc1cccc(Cn2nc(C(F)(F)C(F)(F)F)nc2-c2ccc(C(F)(F)F)cc2)c1C` [4-10], “logP (acid) 4.44”.
Turning to `CSC[C@H](C)NC(=O)c1c(Cl)cccc1C(=O)Nc1cccc(Cn2nc(C(F)(F)C(F)(F)F)nc2-c2ccc(Cl)nc2)c1C` [4-11], the “logP (acid)” value is listed as “logP (acid) 3.8”.
The same measure, in the same setting: with `CSC[C@H](C)NC(=O)c1c(Cl)cccc1C(=O)Nc1cccc(Cn2nnc(-c3ccc(C(F)(F)F)cc3)n2)c1` [4-16] the entry was “logP (acid) 3.86”.

Still in this series, the particulars now being: reverse phase (C18) chromatography at pH2.3, 0.1% phosphoric acid aqueous solution / acetonitrile, linear gradient 10-95% acetonitrile.
`Cc1cc(Cn2nc(C(F)(F)F)nc2C(F)(F)F)c(F)cc1NC(=O)c1cccc(Cl)c1C(=O)N[C@@H](C)C[S+](C)[O-]` (some centres unmarked) [7-8]: the “logP (acid)” value is “logP (acid) 2.63”.
The same measure, in the same setting: with `Cc1cc(Cn2nc(C(F)(F)F)nc2C(F)(F)F)c(F)cc1NC(=O)c1cccc(Cl)c1C(=O)N[C@@H](C)CS(C)(=O)=O` [7-9] the entry was “logP (acid) 3.02”.

The series is the same for the next values; noted with them: reverse phase (C18) chromatography, pH 2.3.
For `CSCC(C)NC(=O)c1c(Cl)cccc1C(=O)Nc1ccc(Cn2cc(C3=NOC(c4cc(Cl)cc(Cl)c4)(C(F)(F)F)C3)c(C(F)(F)F)n2)cc1C` (mixture of isomers) [13-201], the “logP (acid)” value is listed as “logP (acid) 3.43”.
As to `CSCC(C)NC(=O)c1c(Cl)cccc1C(=O)Nc1ccc(C(O)c2cc(C(F)(F)C(F)(F)F)n[nH]2)cc1C` (mixture of isomers) [13-231], the “logP (acid)” value is “logP (acid) 2.76”.
The same measure, in the same setting: the same measure for `Cc1nc(Cn2nc(C(F)(F)F)cc2C(F)(F)F)ccc1NC(=O)c1cccc(S(=O)(=O)N(C)C)c1C(=O)NC(C)C[S+](C)[O-]` (mixture of isomers) [13-288]: “logP (acid) 2.37”.
In the case of `CSCC(C)NC(=O)c1c(SC)cccc1C(=O)Nc1ccc(C(O)c2cc(C(F)(F)C(F)(F)F)n[nH]2)cc1C` (mixture of isomers) [13-340], the “logP (acid)” value is listed as “logP (acid) 2.77”.
For the compound `CSCC(C)NC(=O)c1c(C(=O)Nc2ccc(C(O)c3cc(C(F)(F)C(F)(F)F)n[nH]3)cc2C)cccc1S(C)(=O)=O` (mixture of isomers) [13-341], the “logP (acid)” value is “logP (acid) 2.02”.

Staying with this series, now noted: reverse phase (C18) chromatography, pH2.3, 0.1% phosphoric acid / acetonitrile gradient 10-95%.
As for `CNC(=O)c1cc(Cl)cc(Cl)c1C(=O)Nc1cc(Cl)ccc1Cn1nc(C(F)(F)F)nc1C(F)(F)F` [3-2], the “logP (acid)” value is recorded as “logP (acid) 3.84”.
Take `CSC[C@H](C)NC(=O)c1c(Cl)cccc1C(=O)Nc1cc(F)c(C)nc1Cn1nc(C(F)(F)F)cc1C(F)(F)F` [3-7]: the “logP (acid)” value was “logP (acid) 4.28”.
On the same count and under the same terms, the same measure for `CSC[C@H](C)NC(=O)c1c(Cl)cccc1C(=O)Nc1cc(F)c(C)cc1Cn1nc(C(F)(F)F)nc1C(F)(F)F` [3-8]: “logP (acid) 4.13”.
